Two compounds from publication PMC8274818 (Bioorganic & medicinal chemistry, 2019) can be followed below.

The nature of the series: Kinetic solubility assay. The class given is physicochemical. To be noted: phosphate buffer, pH 7.4, aqueous buffer, kinetic from dmso stock.

Each structure is given as a SMILES string. ≈ marks a conversion by molar mass, not a printed value.

Compound `Nc1ccc(/N=N/c2ccccc2)c(N)n1` [phenazolpyridine] registered a kinetic solubility at 6 h of 27.7 ± 4.49 µg/mL (≈ 130 µM).

Turning to `CCCSc1ccc2nc(NC(=O)OC)[nH]c2c1` [Albendazole, albendazole], the solubility (kinetic) at 6 h was < 1 µg/mL.
